Results: PMC8453936, “Development and in vitro Profiling of Dual FXR/LTA4H Modulators” (Chemmedchem, 2021)

Target: T1, PPARγ (Homo sapiens, UniProt P37231)
T1 construct: expressed in transfected cells; host or cells: HEK293T
T1 sequence (P37231 238-503 limits assumed): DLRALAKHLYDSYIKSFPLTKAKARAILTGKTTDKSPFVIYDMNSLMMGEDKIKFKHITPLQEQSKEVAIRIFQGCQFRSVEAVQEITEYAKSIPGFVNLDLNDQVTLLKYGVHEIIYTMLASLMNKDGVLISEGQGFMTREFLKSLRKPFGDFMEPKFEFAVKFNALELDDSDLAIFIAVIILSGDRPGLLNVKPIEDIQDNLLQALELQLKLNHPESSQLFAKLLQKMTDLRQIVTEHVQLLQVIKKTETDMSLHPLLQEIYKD
Test: Gal4 hybrid reporter gene assay PPARγ (HEK293T)
Format: cell-based
Conditions: relative activation, n=2
Excerpt: Isothermal titration calorimetry (ITC) confirmed binding of 8 and 19 to the recombinant proteins of both FXR LBD and LTA4H (Figure 1).
Figure 2 (a) Selectivity profiles of 8 and 19 over related nuclear receptors. […] (b) Activity of 8 and 19 in a WST‐1 cell viability assay in HepG2 cells. Data are mean±S.E.M., n=4. […] Data are mean±S.E.M. relative FXR activation (%), n≥3. […] Data are mean±S.E.M. relative LTA4H inhibition (%), n=3.
Hybrid reporter gene assays. Nuclear receptor modulation was determined in hybrid reporter gene assays using the Gal4‐fusion receptor plasmids pFA‐CMV‐hPPARα‐LBD,[39] pFA‐CMV‐hPPARγLBD,[39] pFA‐CMV‐hPPARδ‐LBD,[39] pFA‐CMV‐hLXRα‐LBD,[40] pFACMV‐hLXRβ‐LBD,[40] pFA‐CMV‐hRXRα‐LBD,[41] pFA‐CMV‐hRARα‐LBD,[41] pFA‐CMV‐hVDR‐LBD[41] and pFA‐CMV‐hCAR‐LBD[41] coding for the hinge region and ligand binding domain (LBD) of the canonical isoform of the respective nuclear receptor, pFR‐Luc (Stratagene) as reporter plasmid and pRL‐SV40 (Promega) for normalization of transfection eﬃciency. HEK293T cells were grown in DMEM high glucose, supplemented with 10 % FCS, sodium pyruvate (1 mM), penicillin (100 U/mL), and streptomycin (100 μg/mL) at 37 °C and 5 % CO2, and seeded in 96‐well plates (2.5 ⋅ 10^4 cells/well) the day before transfection. […] Luminescence was measured with an Infinite M200 luminometer (Tecan Deutschland GmbH, Germany). […]

- PPARγ activation: weak PPARγ activation
SMILES: O=C(O)c1cccc(NC(=O)c2ccc(OCCCc3ccccc3)cc2)c1 [compound 8]
